Measurements reported in the supplement of paper PMC10307832.

Experiments:
Experiment in all cases: relative viability (nuclei count vs DMSO), 5 days (fraction); higher = more cells survive
CAL-12T = system: CAL-12T
Summary of the method: (§1)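 Lung cancer cell lines, seeded in 1536-well plates, were treated the following day by pin tool with a single drug or with five library-drug doses (not always all listed) in √10 steps on top of a fixed anchor-drug dose. Cells were fixed and nuclei stained in one step after 5 days, and nuclei were counted. Relative viability is the nuclei count for treated wells divided by that for vehicle wells, reported as medians of duplicate plates.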

PC-3 [JPC-3] = system: PC-3 [JPC-3]
Summary of the method: as §1

RERF-LC-KJ = system: RERF-LC-KJ
Summary of the method: as §1

NCI-H1651 = system: NCI-H1651
Summary of the method: as §1

NCI-H1755 = system: NCI-H1755
Summary of the method: as §1

ChaGo-K-1 = system: ChaGo-K-1
Summary of the method: as §1

LOU-NH91 = system: LOU-NH91
Summary of the method: as §1

ABC-1 = system: ABC-1
Summary of the method: as §1

LU99A = system: LU99A
Summary of the method: as §1

LC-2-ad = system: LC-2-ad
Summary of the method: as §1

NCI-H2228 = system: NCI-H2228
Summary of the method: as §1

NCI-H3122 = system: NCI-H3122
Summary of the method: as §1

HCC-366 = system: HCC-366
Summary of the method: as §1

UMC-11 = system: UMC-11
Summary of the method: as §1

NCI-H460 = system: NCI-H460
Summary of the method: as §1

NCI-H2405 = system: NCI-H2405
Summary of the method: as §1

HCC-78 = system: HCC-78
Summary of the method: as §1

NCI-H2087 = system: NCI-H2087
Summary of the method: as §1

## COc1nc(C)cnc1NS(=O)(=O)c1cccnc1-c1ccc(-c2nnco2)cc1 [Zibotentan] + CC(C)C[C@H](NC(=O)[C@H](Cc1ccccc1)NC(=O)c1cnccn1)B(O)O [Bortezomib] (partner 0.002 µM)
CAL-12T; first compound 0.08 µM
  relative viability: 0.941
CAL-12T; first compound 0.8 µM
  relative viability: 1.01
CAL-12T; first compound 2.53 µM
  relative viability: 1.01
PC-3 [JPC-3]; first compound 0.08 µM
  relative viability: 0.906
PC-3 [JPC-3]; first compound 0.253 µM
  relative viability: 0.838
PC-3 [JPC-3]; first compound 0.8 µM
  relative viability: 0.839
PC-3 [JPC-3]; first compound 2.53 µM
  relative viability: 0.807
RERF-LC-KJ; first compound 0.08 µM
  relative viability: 1.04
RERF-LC-KJ; first compound 0.253 µM
  relative viability: 1.1
RERF-LC-KJ; first compound 0.8 µM
  relative viability: 1.09
RERF-LC-KJ; first compound 2.53 µM
  relative viability: 0.998
NCI-H1651; first compound 0.08 µM
  relative viability: 0.981
NCI-H1651; first compound 0.253 µM
  relative viability: 0.871
NCI-H1651; first compound 0.8 µM
  relative viability: 0.902
NCI-H1651; first compound 2.53 µM
  relative viability: 0.972
NCI-H1755; first compound 0.08 µM
  relative viability: 0.945
NCI-H1755; first compound 0.253 µM
  relative viability: 0.952
NCI-H1755; first compound 0.8 µM
  relative viability: 0.968
NCI-H1755; first compound 2.53 µM
  relative viability: 0.97
ChaGo-K-1; first compound 0.08 µM
  relative viability: 0.956
ChaGo-K-1; first compound 0.8 µM
  relative viability: 0.977
ChaGo-K-1; first compound 2.53 µM
  relative viability: 0.99
LOU-NH91; first compound 0.08 µM
  relative viability: 0.469
LOU-NH91; first compound 0.253 µM
  relative viability: 0.443
LOU-NH91; first compound 0.8 µM
  relative viability: 0.538
LOU-NH91; first compound 2.53 µM
  relative viability: 0.815
ABC-1; first compound 0.08 µM
  relative viability: 0.348
ABC-1; first compound 0.253 µM
  relative viability: 0.289
ABC-1; first compound 0.8 µM
  relative viability: 0.374
ABC-1; first compound 2.53 µM
  relative viability: 0.316
LU99A; first compound 0.08 µM
  relative viability: 1.3
LU99A; first compound 0.253 µM
  relative viability: 1.13
LU99A; first compound 0.8 µM
  relative viability: 1.23
LU99A; first compound 2.53 µM
  relative viability: 1.17
LC-2-ad; first compound 0.08 µM
  relative viability: 1.03
LC-2-ad; first compound 0.253 µM
  relative viability: 0.932
LC-2-ad; first compound 0.8 µM
  relative viability: 0.921
LC-2-ad; first compound 2.53 µM
  relative viability: 1.07
NCI-H2228; first compound 0.08 µM
  relative viability: 0.801
NCI-H2228; first compound 0.253 µM
  relative viability: 0.821
NCI-H2228; first compound 0.8 µM
  relative viability: 0.97
NCI-H2228; first compound 2.53 µM
  relative viability: 1.07
NCI-H3122; first compound 0.08 µM
  relative viability: 1.02
NCI-H3122; first compound 0.253 µM
  relative viability: 0.979
NCI-H3122; first compound 0.8 µM
  relative viability: 0.992
NCI-H3122; first compound 2.53 µM
  relative viability: 1.03
HCC-366; first compound 0.08 µM
  relative viability: 1.14
HCC-366; first compound 0.253 µM
  relative viability: 1.03
HCC-366; first compound 0.8 µM
  relative viability: 0.795
HCC-366; first compound 2.53 µM
  relative viability: 1.11
UMC-11; first compound 0.08 µM
  relative viability: 0.601
UMC-11; first compound 0.253 µM
  relative viability: 0.623
UMC-11; first compound 0.8 µM
  relative viability: 0.668
UMC-11; first compound 2.53 µM
  relative viability: 0.909
NCI-H460; first compound 0.08 µM
  relative viability: 1.25
NCI-H460; first compound 0.8 µM
  relative viability: 1.11
NCI-H460; first compound 2.53 µM
  relative viability: 1.2
NCI-H2405; first compound 0.08 µM
  relative viability: 1.02
NCI-H2405; first compound 0.253 µM
  relative viability: 1.05
NCI-H2405; first compound 0.8 µM
  relative viability: 0.991
NCI-H2405; first compound 2.53 µM
  relative viability: 0.963
HCC-78; first compound 0.08 µM
  relative viability: 0.473
HCC-78; first compound 0.253 µM
  relative viability: 0.443
HCC-78; first compound 0.8 µM
  relative viability: 0.563
HCC-78; first compound 2.53 µM
  relative viability: 0.485
NCI-H2087; first compound 0.08 µM
  relative viability: 0.939
NCI-H2087; first compound 0.253 µM
  relative viability: 0.801
NCI-H2087; first compound 0.8 µM
  relative viability: 0.736
NCI-H2087; first compound 2.53 µM
  relative viability: 0.873

## O=c1cc(-c2cccc3c2Sc2ccccc2S3)oc(N2CCOCC2)c1 + CC(C)C[C@H](NC(=O)[C@H](Cc1ccccc1)NC(=O)c1cnccn1)B(O)O [Bortezomib] (partner 0.002 µM)
CAL-12T; first compound 0.08 µM
  relative viability: 0.716
CAL-12T; first compound 0.253 µM
  relative viability: 0.945
CAL-12T; first compound 0.8 µM
  relative viability: 1.02
CAL-12T; first compound 2.53 µM
  relative viability: 0.98
CAL-12T; first compound 8 µM
  relative viability: 1.05
PC-3 [JPC-3]; first compound 0.08 µM
  relative viability: 0.875
PC-3 [JPC-3]; first compound 0.253 µM
  relative viability: 0.801
PC-3 [JPC-3]; first compound 0.8 µM
  relative viability: 0.886
PC-3 [JPC-3]; first compound 2.53 µM
  relative viability: 0.818
PC-3 [JPC-3]; first compound 8 µM
  relative viability: 1.12
RERF-LC-KJ; first compound 0.08 µM
  relative viability: 1.04
RERF-LC-KJ; first compound 0.253 µM
  relative viability: 1.36
RERF-LC-KJ; first compound 0.8 µM
  relative viability: 1.22
RERF-LC-KJ; first compound 2.53 µM
  relative viability: 1.09
RERF-LC-KJ; first compound 8 µM
  relative viability: 1.02
NCI-H1651; first compound 0.08 µM
  relative viability: 0.925
NCI-H1651; first compound 0.253 µM
  relative viability: 1.08
NCI-H1651; first compound 0.8 µM
  relative viability: 0.935
NCI-H1651; first compound 2.53 µM
  relative viability: 0.906
NCI-H1651; first compound 8 µM
  relative viability: 0.964
NCI-H1755; first compound 0.08 µM
  relative viability: 0.973
NCI-H1755; first compound 0.253 µM
  relative viability: 1.09
NCI-H1755; first compound 0.8 µM
  relative viability: 1.01
NCI-H1755; first compound 2.53 µM
  relative viability: 1.01
NCI-H1755; first compound 8 µM
  relative viability: 0.941
ChaGo-K-1; first compound 0.08 µM
  relative viability: 0.915
ChaGo-K-1; first compound 0.253 µM
  relative viability: 1.02
ChaGo-K-1; first compound 0.8 µM
  relative viability: 1.28
ChaGo-K-1; first compound 8 µM
  relative viability: 1.29
LOU-NH91; first compound 0.08 µM
  relative viability: 0.481
LOU-NH91; first compound 0.253 µM
  relative viability: 0.514
LOU-NH91; first compound 0.8 µM
  relative viability: 0.546
LOU-NH91; first compound 2.53 µM
  relative viability: 0.489
LOU-NH91; first compound 8 µM
  relative viability: 0.502
ABC-1; first compound 0.08 µM
  relative viability: 0.364
ABC-1; first compound 0.253 µM
  relative viability: 0.312
ABC-1; first compound 0.8 µM
  relative viability: 0.249
ABC-1; first compound 2.53 µM
  relative viability: 0.333
ABC-1; first compound 8 µM
  relative viability: 0.323
LU99A; first compound 0.08 µM
  relative viability: 1.18
LU99A; first compound 0.253 µM
  relative viability: 1.07
LU99A; first compound 0.8 µM
  relative viability: 1.5
LU99A; first compound 2.53 µM
  relative viability: 1.03
LU99A; first compound 8 µM
  relative viability: 1.3
LC-2-ad; first compound 0.08 µM
  relative viability: 0.989
LC-2-ad; first compound 0.253 µM
  relative viability: 0.827
LC-2-ad; first compound 0.8 µM
  relative viability: 1.06
LC-2-ad; first compound 2.53 µM
  relative viability: 1.02
LC-2-ad; first compound 8 µM
  relative viability: 1.07
NCI-H2228; first compound 0.08 µM
  relative viability: 0.965
NCI-H2228; first compound 0.253 µM
  relative viability: 1.16
NCI-H2228; first compound 0.8 µM
  relative viability: 1.19
NCI-H2228; first compound 2.53 µM
  relative viability: 0.982
NCI-H2228; first compound 8 µM
  relative viability: 1.23
NCI-H3122; first compound 0.08 µM
  relative viability: 1.05
NCI-H3122; first compound 0.253 µM
  relative viability: 1.15
NCI-H3122; first compound 0.8 µM
  relative viability: 1.08
NCI-H3122; first compound 2.53 µM
  relative viability: 1
NCI-H3122; first compound 8 µM
  relative viability: 1.12
HCC-366; first compound 0.08 µM
  relative viability: 1.09
HCC-366; first compound 0.253 µM
  relative viability: 1.65
HCC-366; first compound 0.8 µM
  relative viability: 1.12
HCC-366; first compound 2.53 µM
  relative viability: 1.03
HCC-366; first compound 8 µM
  relative viability: 1.28
UMC-11; first compound 0.08 µM
  relative viability: 0.774
UMC-11; first compound 0.253 µM
  relative viability: 1.19
UMC-11; first compound 0.8 µM
  relative viability: 1.24
UMC-11; first compound 2.53 µM
  relative viability: 0.535
UMC-11; first compound 8 µM
  relative viability: 1.01
NCI-H460; first compound 0.08 µM
  relative viability: 1.36
NCI-H460; first compound 0.8 µM
  relative viability: 1.12
NCI-H460; first compound 2.53 µM
  relative viability: 1.02
NCI-H460; first compound 8 µM
  relative viability: 1.87
NCI-H2405; first compound 0.08 µM
  relative viability: 0.949
NCI-H2405; first compound 0.253 µM
  relative viability: 1.11
NCI-H2405; first compound 0.8 µM
  relative viability: 0.996
NCI-H2405; first compound 2.53 µM
  relative viability: 0.98
NCI-H2405; first compound 8 µM
  relative viability: 1.03
HCC-78; first compound 0.08 µM
  relative viability: 0.461
HCC-78; first compound 0.253 µM
  relative viability: 0.48
HCC-78; first compound 0.8 µM
  relative viability: 0.355
HCC-78; first compound 2.53 µM
  relative viability: 0.482
HCC-78; first compound 8 µM
  relative viability: 0.525
NCI-H2087; first compound 0.08 µM
  relative viability: 1.06
NCI-H2087; first compound 0.253 µM
  relative viability: 1.02
NCI-H2087; first compound 0.8 µM
  relative viability: 1.1
NCI-H2087; first compound 2.53 µM
  relative viability: 0.792
NCI-H2087; first compound 8 µM
  relative viability: 0.888
